The values below come from publication PMC6934184, “Selective DNA-PKcs inhibition extends the therapeutic index of localized radiotherapy and chemotherapy” (The Journal of Clinical Investigation, 2019).

The test addresses T1, MLCK (MLCK2) (Homo sapiens, UniProt Q32MK0).
T1 construct: purchased Thermo Fisher Scientific (Life Technologies) SelectScreen
The test can be described thus: SelectScreen LanthaScreen. The test is classed as binding. Particulars: read-out: % displacement. The essentials: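 SelectScreen broad panel; activity (Z'LYTE, Adapta) plus binding formats. ATP: Km app for CSF1R Z'LYTE; 10 for CAMK1 Adapta. Readout = % per kinase.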
A general note: TR-FRET usually uses a lanthanide donor and a delayed reading to cut background.

T1 sequence (Q32MK0 whole entry): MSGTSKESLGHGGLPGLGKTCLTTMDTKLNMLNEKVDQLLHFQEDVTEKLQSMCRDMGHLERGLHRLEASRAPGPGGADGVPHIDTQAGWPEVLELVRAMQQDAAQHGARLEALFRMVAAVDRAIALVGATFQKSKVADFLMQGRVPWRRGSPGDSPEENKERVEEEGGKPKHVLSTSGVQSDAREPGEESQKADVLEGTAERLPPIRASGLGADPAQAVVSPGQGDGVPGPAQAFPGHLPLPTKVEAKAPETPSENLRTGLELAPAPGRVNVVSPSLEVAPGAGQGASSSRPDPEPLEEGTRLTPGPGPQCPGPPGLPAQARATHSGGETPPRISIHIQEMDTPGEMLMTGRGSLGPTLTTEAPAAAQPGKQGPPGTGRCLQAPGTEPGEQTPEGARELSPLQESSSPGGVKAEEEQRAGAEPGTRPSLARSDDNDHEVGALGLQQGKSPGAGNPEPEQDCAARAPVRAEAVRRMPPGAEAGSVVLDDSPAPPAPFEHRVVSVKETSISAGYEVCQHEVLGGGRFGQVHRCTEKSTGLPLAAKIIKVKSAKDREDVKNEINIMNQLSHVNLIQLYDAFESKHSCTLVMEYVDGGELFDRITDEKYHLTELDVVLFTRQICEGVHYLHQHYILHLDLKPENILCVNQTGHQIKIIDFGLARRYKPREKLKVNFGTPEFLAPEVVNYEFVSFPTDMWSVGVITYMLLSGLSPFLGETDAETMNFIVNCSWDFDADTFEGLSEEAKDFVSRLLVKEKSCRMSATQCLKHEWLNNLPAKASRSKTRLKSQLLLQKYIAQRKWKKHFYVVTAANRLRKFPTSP

For the compound `CN(C(=O)CN1CCOCC1)c1ccc2sc3c(-c4cccc5c(=O)cc(N6CC7CCC(C6)O7)oc45)cccc3c2c1` [NU5455], the inhibition at 1 µM is 1.5%.
